Experiments:
Details in all cases: 72 h
Caco-2 [1] = test: cell viability relative to DMSO; higher = less toxic
HepG2 [2] = test: as above
U2OS [3] = test: as above
Vero E6 [4] = test: as above
Caco-2 [5] = test: relative viability EC50 (midpoint between 100% and the lowest measured viability); higher = less toxic
HepG2 [6] = test: as above
U2OS [7] = test: as above
Vero E6 [8] = test: as above
Caco-2 [9] = test: drug sensitivity score (DSS) for viability; higher = more toxic; extreme values may be limits of the assay
HepG2 [10] = test: as above
U2OS [11] = test: as above
Vero E6 [12] = test: as above
Calu-3 [13] = test: cell viability relative to DMSO; higher = less toxic
Calu-3 [14] = test: relative viability EC50 (midpoint between 100% and the lowest measured viability); higher = less toxic
Calu-3 [15] = test: drug sensitivity score (DSS) for viability; higher = more toxic; extreme values may be limits of the assay

Row | SMILES | cell viability (Caco-2 [1]; 1 nM) [%] | cell viability (Caco-2 [1]; 10 nM) [%] | cell viability (Caco-2 [1]; 100 nM) [%] | cell viability (Caco-2 [1]; 1000 nM) [%] | cell viability (Caco-2 [1]; 10000 nM) [%] | cell viability (HepG2 [2]; 1 nM) [%] | cell viability (HepG2 [2]; 10 nM) [%] | cell viability (HepG2 [2]; 100 nM) [%] | cell viability (HepG2 [2]; 1000 nM) [%] | cell viability (HepG2 [2]; 10000 nM) [%] | cell viability (U2OS [3]; 1 nM) [%] | cell viability (U2OS [3]; 10 nM) [%] | cell viability (U2OS [3]; 100 nM) [%] | cell viability (U2OS [3]; 1000 nM) [%] | cell viability (U2OS [3]; 10000 nM) [%] | cell viability (Vero E6 [4]; 1 nM) [%] | cell viability (Vero E6 [4]; 10 nM) [%] | cell viability (Vero E6 [4]; 100 nM) [%] | cell viability (Vero E6 [4]; 1000 nM) [%] | cell viability (Vero E6 [4]; 10000 nM) [%] | relative viability EC50 (Caco-2 [5]) [µM] | relative viability EC50 (HepG2 [6]) [µM] | relative viability EC50 (U2OS [7]) [µM] | relative viability EC50 (Vero E6 [8]) [µM] | drug sensitivity score (Caco-2 [9]) | drug sensitivity score (HepG2 [10]) | drug sensitivity score (U2OS [11]) | drug sensitivity score (Vero E6 [12]) | cell viability (Calu-3 [13]; 1 nM) [%] | cell viability (Calu-3 [13]; 10 nM) [%] | cell viability (Calu-3 [13]; 100 nM) [%] | cell viability (Calu-3 [13]; 1000 nM) [%] | cell viability (Calu-3 [13]; 10000 nM) [%] | relative viability EC50 (Calu-3 [14]) [µM] | drug sensitivity score (Calu-3 [15])
1 | CC(C)c1ccccc1S(=O)(=O)c1cc(N)c2ncccc2c1[N+](=O)[O-] | 98.7 | 102 | 99.1 | 97.3 | 89.8 | 100 | 95.8 | 100 | 89.9 | 110 | 99.7 | 102 | 96.3 | 98.5 | 93.7 | 98 | 103 | 107 | 102 | 100 | > 10 | > 10 | > 10 | > 10 | 0 | 0 | 0 | 0 |  |  |  |  |  |  | 
2 | CCn1cc(-c2ccnc3[nH]c(-c4cccc(CN(C)C)c4)cc23)c(-c2ccc(NC(=O)N(C)C)cc2)n1 | 96.3 | 95.7 | 98 | 93.1 | 56.2 | 106 | 105 | 77.8 | 72.3 | 20.1 |  |  |  |  |  | 103 | 104 | 98.5 | 82 | 63.5 |  | 1.19 |  |  | 3.4 | 8.1 |  | 3.8 | 97.8 | 110 | 81.9 | 97.7 | 81.9 | > 10 | 0.6
3 | COc1cc2ncn(-c3cc(OCc4ccccc4C(F)(F)F)c(C(N)=O)s3)c2cc1OC | 102 | 95.5 | 102 | 73.4 | 62.3 | 95.6 | 108 | 105 | 50 | 26.5 | 102 | 97.8 | 102 | 94.4 | 89.4 | 104 | 96 | 98.8 | 69.1 | 57.5 |  | 0.743 | > 10 |  | 4.9 | 9.9 | 0.1 | 5.9 | 95.9 | 101 | 95.4 | 90 | 86.1 | > 10 | 0.5
4 | C[C@@H](N)c1ccc(C(=O)Nc2ccnc3[nH]ccc23)cc1 | 95.8 | 101 | 110 | 105 | 91.6 | 93.7 | 94.4 | 105 | 89.8 | 68.4 | 99.3 | 96.8 | 99 | 98.2 | 75 | 99.1 | 98.5 | 96.6 | 93 | 86.5 | > 10 |  |  | > 10 | 0 | 2.8 | 1.2 | 0.2 |  |  |  |  |  |  | 
5 | Cc1c(Cn2c(C)nc3c(C(=O)O)cc(N4CCOCC4)cc32)cccc1C(F)(F)F | 102 | 97.3 | 91.2 | 93.1 | 84.9 |  |  |  |  |  | 95.7 | 104 | 96.2 | 99 | 91.3 | 97.2 | 101 | 93.1 | 84.4 | 58.9 | > 10 |  | > 10 |  | 0.5 |  | 0 | 3.6 | 110 | 101 | 97 | 94.4 | 86 | > 10 | 0.2
6 | O=C1NCCc2[nH]c(-c3ccncc3)cc21 | 96.1 | 93.6 | 94.2 | 94.9 | 38.5 | 91.4 | 102 | 92.4 | 33.1 | 9.5 | 95.2 | 104 | 93.6 | 95.3 | 5.8 | 98 | 98.2 | 98.1 | 85.7 | 13.5 | 2.48 | 0.499 | 2.77 | 1.9 | 4.2 | 13.6 | 5.9 | 7.2 | 94 | 94.6 | 94.6 | 79.5 | 53.6 |  | 4.6
7 | c1ccc(C[C@H](c2ccccc2)N2CCCCC2)cc1 (racemic) [1-(1,2-diphenylethyl)piperidine-(+/-)] | 91.2 | 93.9 | 101 | 100 | 103 | 92.9 | 103 | 96.5 | 100 | 86.8 | 104 | 93.8 | 98.7 | 98.9 | 105 | 92.6 | 97.7 | 92.2 | 97.1 | 102 | > 10 | > 10 | > 10 | > 10 | 0 | 0.1 | 0 | 0 |  |  |  |  |  |  | 
8 | O=[N+]([O-])c1ccc(O)c([N+](=O)[O-])c1 [2,4-dinitrophenol] | 89.3 | 96.8 | 82.7 | 98.8 | 73.4 | 100 | 89.5 | 110 | 106 | 103 | 96.2 | 102 | 106 | 105 | 97 | 94 | 103 | 100 | 92.9 | 99.1 |  | > 10 | > 10 | > 10 | 1.8 | 0 | 0 | 0 |  |  |  |  |  |  | 
9 | NCC(O)(CS(=O)(=O)O)c1ccc(Cl)cc1 (stereo not drawn) [2-hydroxysaclofen] | 98.4 | 96.2 | 91.4 | 98.6 | 96.3 | 101 | 98.5 | 89.4 | 90.3 | 98.8 | 104 | 94.8 | 94.9 | 103 | 97.4 | 100 | 98.1 | 102 | 97.2 | 97.5 | > 10 | > 10 | > 10 | > 10 | 0 | 0.3 | 0 | 0 |  |  |  |  |  |  | 
10 | CCn1c(O)nnc1-c1ccc(Cl)cc1 [5-(4chlorophenyl)-4-ethyl-2,4-dihydro-3H-1,2,4-triazol-3-one] | 116 | 112 | 112 | 91.6 | 79.1 | 112 | 111 | 102 | 98.3 | 94.7 | 100 | 103 | 99.8 | 98.1 | 78.6 | 97.9 | 102 | 102 | 106 | 79.6 | > 10 | > 10 | > 10 | > 10 | 1.6 | 0 | 1 | 0.4 |  |  |  |  |  |  | 
11 | CC(=O)O[C@]1(C(C)=O)CC[C@H]2[C@@H]3C=CC4=CC(=O)CC[C@]4(C)[C@H]3CC[C@@]21C [6,7-dehydro-17-acetoxy-progesterone] | 95.6 | 97.5 | 93.7 | 92.8 | 92.6 | 102 | 103 | 105 | 105 | 98 | 96.4 | 99.6 | 97.3 | 101 | 94.8 | 106 | 99.5 | 104 | 98.1 | 98.2 | > 10 | > 10 | > 10 | > 10 | 0 | 0 | 0 | 0 |  |  |  |  |  |  | 
12 | COc1ccccc1N1CCN(CCCCNC(=O)c2ccc3ccccc3c2)CC1 [BP-897] |  |  |  |  |  |  |  |  |  |  |  |  |  |  |  |  |  |  |  |  |  |  |  |  |  | 0 | 0 | 0 |  |  |  |  |  |  | 0.8
13 | Cc1ccc2c(c1)Cc1c(C(=O)NC3CCCCC3)nn(-c3ccc(Cl)cc3Cl)c1-2 [GP2a] | 91.8 | 89.6 | 97.3 | 95.4 | 91.7 | 100 | 102 | 99 | 88.9 | 99.7 | 95.8 | 99.4 | 97.4 | 105 | 102 | 99.5 | 96.2 | 99.8 | 100 | 100 | > 10 | > 10 | > 10 | > 10 | 0 | 0 | 0 | 0 |  |  |  |  |  |  | 
14 | Nc1ncnc2c1c(-c1ccc(Cl)cc1)nn2-c1cccc(-c2cnnn2Cc2cccc(-c3ccccc3)c2)c1 [KB-SRC-4] | 99.1 | 94.7 | 99.7 | 93.6 | 101 | 107 | 98.4 | 99.1 | 99.5 | 111 | 95.2 | 96.5 | 95.5 | 101 | 103 | 97.7 | 99.1 | 95.9 | 93.7 | 105 | > 10 | > 10 | > 10 | > 10 | 0 | 0 | 0 | 0 |  |  |  |  |  |  | 
15 | CC(C)NC(=O)COc1cccc(-c2nc(Nc3ccc4[nH]ncc4c3)c3ccccc3n2)c1 [KD025] | 104 | 100 | 102 | 97.8 | 70.5 | 98.7 | 96.8 | 107 | 86.8 | 94.5 | 97.2 | 103 | 97.5 | 101 | 46.5 | 105 | 99.1 | 104 | 97.3 | 72.8 |  | > 10 | 3.29 |  | 1.6 | 0.8 | 2.7 | 1.5 | 95.6 | 108 | 89.4 | 105 | 108 | > 10 | 0
16 | COc1cc(C(=O)N2CCC(N3CCN(C)CC3)CC2)ccc1Nc1ncc2c(n1)N(C)c1ccccc1C(=O)N2C [LRRK2-IN-1] | 96 | 87.2 | 98.8 | 91.7 | 67.8 | 99.4 | 99.4 | 98.8 | 103 | 31.6 | 101 | 95.9 | 98.5 | 90.6 | 50.1 | 99.5 | 100 | 94 | 94.3 | 13.5 |  | 3.42 |  | 2.64 | 2.7 | 3.5 | 4.2 | 5.7 | 102 | 89.2 | 102 | 88.1 | 52.2 |  | 4.4
